Measurements published in ChEMBL document CHEMBL1149915, “Natural products as leads to potential drugs: an old process or the new hope for drug discovery?” (J Med Chem, 2008).
pIC50, pKi: −log10 of the molar value.

Tests used:
[1] = target: Cyclin-dependent kinase 2 (Homo sapiens, UniProt P24941); assay: Inhibition of Cdk2/cyclin A
[2] = Inhibition of cyclin dependent kinase
[3] = Inhibition of beta-arylsulfotransferase 4
[4] = Inhibition of inositol 1,4,5-triphosphate 3-kinase
[5] = target: Cyclin-dependent kinase 1/cyclin B1 (Homo sapiens, UniProt P06493); assay: Inhibition of Cdk1/cyclin B
Cyclin-dependent kinase 1/cyclin B1, sequence (P06493 whole entry): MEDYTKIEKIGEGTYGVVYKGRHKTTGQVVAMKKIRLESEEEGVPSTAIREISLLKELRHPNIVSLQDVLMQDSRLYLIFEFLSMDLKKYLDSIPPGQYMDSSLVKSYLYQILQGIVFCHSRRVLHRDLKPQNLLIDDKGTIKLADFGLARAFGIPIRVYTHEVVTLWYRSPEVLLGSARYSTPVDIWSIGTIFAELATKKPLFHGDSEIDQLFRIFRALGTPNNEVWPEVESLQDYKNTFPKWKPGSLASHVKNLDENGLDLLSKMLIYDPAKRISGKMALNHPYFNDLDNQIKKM
Cyclin-dependent kinase 1/cyclin B1, sequence (P14635 whole entry, further chain): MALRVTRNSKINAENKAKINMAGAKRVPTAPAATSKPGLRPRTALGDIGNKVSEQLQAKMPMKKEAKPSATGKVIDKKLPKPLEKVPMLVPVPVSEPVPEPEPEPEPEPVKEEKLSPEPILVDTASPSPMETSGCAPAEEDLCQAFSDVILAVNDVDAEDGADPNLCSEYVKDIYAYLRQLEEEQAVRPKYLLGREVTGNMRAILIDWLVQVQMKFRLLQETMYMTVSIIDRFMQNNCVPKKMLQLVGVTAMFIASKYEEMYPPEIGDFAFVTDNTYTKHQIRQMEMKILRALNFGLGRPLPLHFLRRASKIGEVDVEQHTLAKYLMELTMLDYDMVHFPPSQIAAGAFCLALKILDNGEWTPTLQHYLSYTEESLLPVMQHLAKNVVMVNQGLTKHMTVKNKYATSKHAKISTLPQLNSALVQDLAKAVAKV

SMILES	pIC50 [2]	also measured
OCCn1cnc2c(NCc3ccccc3)nc(NCc3ccc(Br)cc3)nc21	–	pIC50 [1]: 4.70
CC[C@H](CO)Nc1nc(NCc2ccccc2)c2ncn(C(C)C)c2n1 [SELICICLIB]	6.35	–
Clc1nc(NCc2cccc3ccccc23)c2nc[nH]c2n1	–	pKi [3]: 7.02
O=[N+]([O-])c1ccc(CNc2nc(NCc3cccc(C(F)(F)F)c3)nc3[nH]cnc23)cc1	–	pIC50 [4]: 4.99; pIC50 [5]: < 4.00
CC[C@H](CO)Nc1nc(Nc2cc(Cl)cc(C(=O)O)c2)c2ncn(C(C)C)c2n1	8.40	–

Further lines, with some results ahead:

pIC50 [2]	SMILES	also measured
8.40	CC[C@H](CO)Nc1nc(Nc2cccc(Cl)c2)c2ncn(C(C)C)c2n1	–
3.00	Cn1cnc2c(NCc3ccccc3)nc(NCCO)nc21 [OLOMOUCINE]	–
